Measurements published in PubChem BioAssay (NCI).
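Briefly, cells in 96-well plates were exposed to five compound concentrations for 48 h, and endpoints were estimated by linear interpolation. GI50 = concentration required for 50% inhibition of growth. TGI marks complete inhibition of growth.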

Key:
Assay in all cases: NCI-60 cell line screen, 48 h
[1] = test system: HS 578T breast
[2] = test system: MALME-3M melanoma
[3] = test system: MDA-MB-231 breast
[4] = test system: NCI-H23 lung
[5] = test system: OVCAR-3 ovarian
[6] = test system: PC-3 prostate
[7] = test system: RPMI-8226 leukemia
[8] = test system: SK-MEL-2 melanoma
[9] = test system: SK-MEL-28 melanoma
[10] = test system: U251 CNS

| SMILES | GI50 [1] | TGI [1] | GI50 [2] | TGI [2] | GI50 [3] | TGI [3] | GI50 [4] | TGI [4] | GI50 [5] | TGI [5] | GI50 [6] | GI50 [7] | TGI [7] | GI50 [8] | TGI [8] | GI50 [9] | GI50 [10] | TGI [6] | TGI [9] | TGI [10] |
| --- | --- | --- | --- | --- | --- | --- | --- | --- | --- | --- | --- | --- | --- | --- | --- | --- | --- | --- | --- | --- |
| Cc1cc(Cl)ccc1Nc1nc(C(F)(F)F)ccc1C(=O)N/N=C/c1ccc([N+](=O)[O-])cc1 | 1.14 µM | 2.91 µM | 1.68 µM | 7.09 µM | 1.86 µM | 5.78 µM | 1.65 µM | > 22 µM | 0.777 µM | 2.63 µM | 0.598 µM | 0.435 µM | 1.77 µM | 1.92 µM | 8.5 µM | 1.22 µM | 0.953 µM | – | – | – |
| C=C1C(=O)O[C@H]2[C@H]1CC/C(COC(=O)c1cc3cc(Cl)ccc3[nH]1)=C\CC[C@@]1(C)O[C@@H]21 | 2.25 µM | 6.48 µM | 1.63 µM | 3.33 µM | 1.32 µM | 2.85 µM | 1.63 µM | 3.68 µM | 1.25 µM | 2.7 µM | 2.42 µM | 0.81 µM | 3.28 µM | 1.73 µM | 3.59 µM | 1.58 µM | 1.75 µM | 6.58 µM | 3.1 µM | 3.32 µM |
| Cc1cc2c(cc1C)N(C(=O)CCl)CCN2C(=O)CCl | 1.75 µM | 4.96 µM | 1.57 µM | 4.5 µM | 1.7 µM | 3.92 µM | 1.76 µM | 3.8 µM | 1.11 µM | 2.46 µM | 1.43 µM | 0.571 µM | 2.7 µM | 1.81 µM | 4.22 µM | 1.56 µM | 1.39 µM | 2.89 µM | 2.96 µM | 2.88 µM |
| COc1ccccc1/C=C/C(=O)c1ccccc1 | 12.1 µM | > 25.5 µM | 15.4 µM | 31.6 µM | 14.4 µM | 35.2 µM | 15.2 µM | 36.6 µM | 5.92 µM | 15.2 µM | 5.65 µM | 0.56 µM | 3.16 µM | 12 µM | 26.4 µM | 16.6 µM | 3.69 µM | 28 µM | 30.8 µM | 15 µM |
| Cc1[nH]nc(C(=O)n2nc(N)c3ccccc32)c1[N+](=O)[O-] | > 100 µM | > 100 µM | > 100 µM | > 100 µM | > 100 µM | > 100 µM | > 100 µM | > 100 µM | > 100 µM | > 100 µM | > 100 µM | > 100 µM | > 100 µM | > 100 µM | > 100 µM | > 100 µM | > 57.2 µM | > 100 µM | > 100 µM | > 100 µM |
| COc1ccc2[nH]c(O)c(C(=Nc3ccc(N(C)C(=O)CN4CCN(C)CC4)cc3)c3ccccc3)c2c1 | 1.09 µM | 4.67 µM | 1.27 µM | 2.85 µM | 1.88 µM | 5.17 µM | 1.73 µM | 12.2 µM | 2.9 µM | 7.31 µM | 3.52 µM | 2.5 µM | 7.53 µM | 2.12 µM | 5.37 µM | 2.11 µM | 1.84 µM | 17.5 µM | 6.12 µM | 5.27 µM |
| COc1ccc2c(c1)/C(=C\c1c(Cl)[nH]c3ccc(OC)cc13)C(=O)N2 | 29.9 µM | 81.2 µM | 21 µM | 44.1 µM | 27.8 µM | 75.2 µM | > 100 µM | > 100 µM | 29.4 µM | > 100 µM | 48.9 µM | 33.3 µM | > 100 µM | 25.8 µM | 62.8 µM | 15.9 µM | 19.7 µM | > 100 µM | 40.4 µM | 43.8 µM |
| CCOc1cc(/C=N\Nc2nnc(C)n2N)c(C)cc1N(CCCl)CCCl | 1.52 µM | 13.1 µM | 0.377 µM | 6.77 µM | 1.39 µM | 6.29 µM | 0.8 µM | 9.49 µM | 0.737 µM | 38.6 µM | 0.927 µM | 0.0978 µM | 3.01 µM | 2.11 µM | 5.33 µM | 1.97 µM | 0.747 µM | 7.41 µM | 53.8 µM | > 28.5 µM |
| NC(N)=NCCC1OC(=O)C2=C1c1c(O)ccc3nccc(c13)O2 (configuration not stated) | > 100 µM | > 100 µM | > 100 µM | > 100 µM | > 100 µM | > 100 µM | > 100 µM | > 100 µM | > 100 µM | > 100 µM | > 100 µM | > 100 µM | > 100 µM | > 100 µM | > 100 µM | > 100 µM | 56.7 µM | > 100 µM | > 100 µM | > 100 µM |
| COc1ccc(-c2oc3c(OC)c(OC)c(OC)c(OC)c3c(=O)c2OC)cc1OC | – | 56.3 µM | – | 68 µM | – | > 100 µM | – | > 100 µM | – | 54.4 µM | – | – | 34 µM | – | > 100 µM | – | – | > 100 µM | > 100 µM | > 100 µM |
